# In patent US7647217B2, “Structure of the farnesoid X receptor ligand binding domain and methods of use therefor” (The Salk Institute for Biological Studies, priority 2002, dated 2010):
# Tests used:
# [1] = tested on: FXR target genes SHP, MRP-2, BSEP and PLTP in HEPG2-FXR cells; assay: Northern blot of FXR target genes in HEPG2-FXR cells; assay type: cell-based, human; settings: for induction of FXR target genes: SHP, MRP-2, BSEP, PLTP; for concentration of maximal activation of FXR target genes: overnight treatment
# Description: 20 μg total RNA was isolated using Trizol (Invitrogen) and used for Northern blot analysis. cDNA probes for human PLTP, SHP, MRP-2 and BSEP were prepared and hybridized to the blot. Blots were normalized by 36B4 expression as shown.
# HepG2 or HT29-derived cell lines were typically cultured in medium containing superstripped FBS for 24 hr before the addition of a ligand or DMSO (vehicle) for an additional 24-48 hr. Total RNA was isolated using TRIzol reagent and was resolved (10 μg/lane) on a 1% agarose, 2.2 M formaldehyde gel, transferred to a nylon membrane (Hybond N^+; Amersham Biosciences, Inc.), and cross-linked to the membrane with UV light.
# cDNA probes were radiolabeled with [α-^32P]dCTP using the highprime labeling kit (Amersham Biosciences, Inc.). Membranes were hybridized using the QuikHyb hybridization solution (Stratagene, La Jolla, Calif.) according to the manufacturer's protocol. Blots were normalized for variations of RNA loading by hybridization to a control probe, either, 18 S ribosomal cDNA, or the ribosomal protein 36B4. The RNA levels were quantitated using a PhosphorImager (ImageQuant software; Molecular Dynamics, Inc., Sunnyvale, Calif.) in addition to being exposed to X-ray film.
# Total RNA was isolated and the expression of the FXR target genes SHP, MRP-2, BSEP and PLTP was measured by Northern blot analysis (see FIG. 4E).
# Differences in efficacy of target gene induction between the liver and the intestinal cell systems may reflect the ability of the liver hepatocytes to mount a xenobotic response or cell specific permeability to the identified compounds. Modification of the ligands to overcome these effects may be made in order to increase the efficacy of these drugs in liver cell systems.
# GAL4-FXR LBD = biological target: T1, GAL4-FXR LBD (Rattus norvegicus, UniProt Q62735); assay: GAL4 DBD-FXR LBD chimeric receptor transcriptional activation assay (with/without RXR); assay type: cell-based; settings: for selectivity for FXR relative to other NHRs: chimeric NHR constructs; for efficacy compared with GW4064: in the absence of RXR; for activation of chimeric FXR construct: in the presence and absence of RXR
# T1 construct: expressed in transfected cells; host or cells: CV-1 (monkey)
# T1 sequence (Q62735 245-469 limits assumed): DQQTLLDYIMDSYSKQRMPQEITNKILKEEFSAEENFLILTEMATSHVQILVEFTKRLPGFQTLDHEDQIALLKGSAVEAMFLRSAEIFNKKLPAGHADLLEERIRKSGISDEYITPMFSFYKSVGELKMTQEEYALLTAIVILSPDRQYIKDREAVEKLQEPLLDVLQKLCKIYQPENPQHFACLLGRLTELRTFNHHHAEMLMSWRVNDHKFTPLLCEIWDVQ
# Description: (§1) FIGS. 3A-3E collectively show the results of ligand activation of CV-1 cells co-transfected with a luciferase reporter gene with a variety of receptor expression constructs. […] FIGS. 3C-3E show the results of CV-1 cells transiently transfected with the indicated reporter constructs, treated with either DMSO or 10 μM of the compounds fexaramine (3C), fexarine (3D), fexarene (3E). Reporter activity was normalized to the internal control and the data plotted as fold activation relative to untreated cells. All transfections contained CMX-βgal as an internal control.
# (§2) The expression plasmids pCMX, pCMX-LacZ, pCMX-mFXRFL, pCMX-hRXRFL, pCMX-GALDBD-rFXRLBD and other pCUX-GALDBD-NR LBDs (hRXRα, hPPARαγδ, mPXR, hPXR, hLXRα, HTRβ, hRARβ, mCAR, mERR3 and hVDR) have been described elsewhere (Blumberg et al. (1998). SXR, a novel steroid and xenobiotic-sensing nuclear receptor. Genes Dev. 12(20), 3195-205). The reporter plasmids pMH2004-TK-luc, pTKECRE*6-luc, pTKER-8*2-luc and pMRP-2-luc also have been described elsewhere. The hPLTP-luc promoter was kindly provided by Dr Dennis Dowhan and the hIBABP-luc promoter was created from a plasmid provided by Dr Philippe Besnard.
# For transfection of these constructs, monkey CV-1 HEPG2 and HEK293T cells were grown in DMEM supplemented with 10% FBS, 50 U/ml penicillin G, and 50 μg/ml streptomycin sulfate at 37° C. in 7% CO2. CV-1 cells (60%-70% confluence, 48-well plate) were cotransfected with 16.6 ng of the appropriate expression vector, 100 ng of reporter plasmid, and 100 ng of pCMX-LacZ in 200 μl of DMEM containing 10% FBS by the N-[1-(2,3-dioleoyloxy)propyl]-N,N,N-trimethylammonium methylsulfate (DOTAP)-mediated procedure. After 24 hr, the medium was replaced, and cells were harvested and assayed for luciferase activity 36-48 hr after transfection. The luciferase activity was normalized to the level of β-galactosidase activity. Each transfection was performed in triplicate and repeated at least three times.
# (§3) Cell-based transcriptional activation assays using chimeric nuclear hormone receptor (NHR) constructs were established to measure the selectivity of the compounds to FXR relative to other NHRs (Forman et al. (1995). Identification of a nuclear receptor that is activated by farnesol metabolites. Cell 81, 687-693). These assays used fusion proteins with the yeast GAL4 DNA binding domain connected to the ligand-binding domain (LBD) of NHRs. These constructs were co-transfected with a thymidine kinase C minimal promoter reporter vector containing four copies of the GAL4 binding site. Titration experiments were then performed using the identified compounds. […] Addition of RXR had no effect on the activation potential of fexaramine, fexarine, fexarene in this assay.
# hRARβ = biological target: T2, hRARβ (Homo sapiens, UniProt P10826); assay: GAL4 chimeric NHR cross-reactivity assay; assay type: cell-based; settings: 10 μM
# T2 construct: expressed in transfected cells; host or cells: CV-1 (monkey)
# T2 sequence (P10826 183-417 limits assumed): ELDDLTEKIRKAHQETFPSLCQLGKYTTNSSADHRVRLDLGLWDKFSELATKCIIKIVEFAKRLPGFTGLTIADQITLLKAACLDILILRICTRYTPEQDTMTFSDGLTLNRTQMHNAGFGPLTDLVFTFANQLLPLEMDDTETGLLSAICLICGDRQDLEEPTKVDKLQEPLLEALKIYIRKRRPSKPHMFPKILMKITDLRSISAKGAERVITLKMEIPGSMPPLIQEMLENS
# Description: as §1, §2, §3
# (§4) No activity was observed on other chimeric NHR constructs including hRXRα, hPPARαγδ, mPXR, hPXR, hLXRα, hTRβ, hRARβ, mCAR, mERR3 and hVDR (see FIGS. 3C-3E).
# mCAR = biological target: T3, mCAR (Mus musculus, UniProt O35627); assay: GAL4 chimeric NHR cross-reactivity assay; assay type: cell-based; settings: 10 μM
# T3 construct: expressed in transfected cells; host or cells: CV-1 (monkey)
# T3 sequence (O35627 119-358 limits assumed): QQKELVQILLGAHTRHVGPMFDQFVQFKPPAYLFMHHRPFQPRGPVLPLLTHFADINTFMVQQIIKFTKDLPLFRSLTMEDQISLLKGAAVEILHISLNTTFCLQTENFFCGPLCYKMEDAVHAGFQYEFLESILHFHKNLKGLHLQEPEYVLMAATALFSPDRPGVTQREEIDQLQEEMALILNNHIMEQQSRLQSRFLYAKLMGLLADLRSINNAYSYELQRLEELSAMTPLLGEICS
# Description: as §1, §2, §3, §4
Structure (SMILES),induction of FXR target genes [1],concentration of maximal activation of FXR target genes [1] [µM],effect of addition of RXR on activation potential (GAL4-FXR LBD),selectivity for FXR relative to other NHRs (GAL4-FXR LBD),efficacy compared with GW4064 (GAL4-FXR LBD),activation of chimeric FXR construct (GAL4-FXR LBD),activity on chimeric hRARβ construct (hRARβ),activity on chimeric mCAR construct (mCAR)
COC(=O)/C=C/c1cccc(N(Cc2ccc(-c3ccc(N(C)C)cc3)cc2)C(=O)C2CCCCC2)c1 [fexaramine],most effective inducer,10,no effect,highly selective for FXR,more efficacious ligands for FXR than GW4064,activate,No activity,No activity
"CC(C)c1onc(-c2c(Cl)cccc2Cl)c1COc1ccc(/C=C/c2cccc(C(=O)O)c2)c(Cl)c1 [GW4064, reference compound]",–,–,–,–,–,activate,–,–
COC(=O)/C=C/c1cccc(N(Cc2ccc(-c3ccccc3OC)cc2)C(=O)C(C)C)c1 [SRI-1],–,–,–,–,–,little or no activity,–,–
COC(=O)/C=C/c1cccc(N(Cc2ccc(-c3ccc4c(c3)OCO4)cc2)C(=O)C2CCCCC2)c1 [fexarine],strong induction,10,no effect,highly selective for FXR,more efficacious ligands for FXR than GW4064,activate,No activity,No activity
COC(=O)/C=C/c1cccc(N(Cc2ccc(-c3ccc(C(C)(C)C)cc3)cc2)C(=O)C(C)C)c1 [SRI-2],–,–,–,–,–,little or no activity,–,–
COC(=O)/C=C/c1cccc(N(Cc2ccc(/C=C/c3ccccc3)cc2)C(=O)C2CCCCC2)c1 [fexarene],strong induction,10,no effect,highly selective for FXR,more efficacious ligands for FXR than GW4064,activate,No activity,No activity
